ChEMBL document CHEMBL3217509, “Discovery of an HIV integrase inhibitor with an excellent resistance profile” (Medchemcomm, 2013)

Columns and labels:
[1] = Intrinsic clearance in human liver microsomes assessed per mg of protein by LC-MS/MS analysis in presence of UDPGA; assay type: ADME; settings: read-out: CLH
[2] = tested on: Human immunodeficiency virus 1; experiment: Antiviral activity against HIV1 NL4-3 infected in human MT2 cells after 3 days by human JC53BL cell-based beta-galactosidase reporter gene assay; assay type: functional, organism-based; settings: Human immunodeficiency virus 1, NL4-3, JC53BL, 72 h
[3] = Intrinsic clearance in human liver microsomes assessed per mg of protein by LC-MS/MS analysis; assay type: ADME; settings: read-out: CLH
[4] = Intrinsic clearance in human hepatocytes assessed assessed per million of cells by LC-MS/MS analysis; assay type: ADME, cell-based, Hepatocyte; settings: read-out: CLH
[5] = Aqueous solubility of the compound at pH 7.4; assay type: physicochemical; settings: buffer
[6] = Inhibition of DNA polymerase beta (unknown origin); design: species or system Homo sapiens
[7] = Inhibition of DNA polymerase alpha (unknown origin); design: species or system Homo sapiens

| microsomal CLint [1] | IC50 [2] | microsomal CLint [3] | hepatocyte CLint [4] | solubility [5] | IC50 [6] | IC50 [7] | Compound |
| --- | --- | --- | --- | --- | --- | --- | --- |
| 18 µL/min/mg | 19 nM | 12.5 µL/min/mg | 34.3 µL/min/1e6 cells |  |  |  | COc1cc(Cn2ccc3c4c(ncc32)C(=O)N(O)CC4)ccc1F |
| 3.5 µL/min/mg | 6 nM | 32 µL/min/mg | 5.9 µL/min/1e6 cells | < 1 µg/mL |  |  | COCCNC(=O)c1c(O)c2ncc3c(ccn3Cc3ccc(F)cc3)c2[nH]c1=O |
| < 3.5 µL/min/mg | 1 nM | 17.3 µL/min/mg | 2.9 µL/min/1e6 cells | < 1 µg/mL |  |  | O=C(NCCO)c1c(O)c2ncc3c(ccn3Cc3ccc(F)cc3)c2[nH]c1=O |
|  |  |  |  |  | 1960 nM | 7170 nM | Cc1cn([C@H]2CC[C@@H](COP(=O)(O)OP(=O)(O)OP(=O)(O)O)O2)c(=O)[nH]c1=O |
